Like-named read-outs stand apart in the source and are kept apart here.
Key:
Assay in all cases: KINOMEscan
Type in all cases: binding
[1] = molecular target: ABL1(Q252H)-nonphosphorylated (Homo sapiens (Human), UniProt P00519, Q252H); conditions: 10000 nM, read-out: Percent Control
BLK = BLK (Homo sapiens (Human), UniProt P51451); conditions: 10000 nM, read-out: Percent Control
CDC2L2 = CDC2L2 (Homo sapiens (Human), UniProt Q9UQ88); conditions: CDC2L2, 10000 nM; read-out: Percent Control
CDK8 = CDK8 (Homo sapiens (Human), UniProt P49336); conditions: CDK8, 10000 nM; read-out: Percent Control
CSNK1A1 = CSNK1A1 (Homo sapiens (Human), UniProt P48729); conditions: CSNK1A1, 10000 nM; read-out: Percent Control
DAPK1 = DAPK1 (Homo sapiens (Human), UniProt P53355); conditions: DAPK1, 10000 nM; read-out: Percent Control
EGFR = EGFR (Homo sapiens (Human), UniProt P00533); conditions: 10000 nM, read-out: Percent Control
[2] = molecular target: EGFR(L747-S752del, P753S) (Homo sapiens (Human), UniProt P00533, DEL747-752/P753S); conditions: 10000 nM, read-out: Percent Control
EIF2AK1 = EIF2AK1 (Homo sapiens (Human), UniProt Q9BQI3); conditions: EIF2AK1, 10000 nM; read-out: Percent Control
EPHA1 = EPHA1 (Homo sapiens (Human), UniProt P21709); conditions: EPHA1, 10000 nM; read-out: Percent Control
FGFR4 = FGFR4 (Homo sapiens (Human), UniProt P22455); conditions: FGFR4, 10000 nM; read-out: Percent Control
FLT3(D835Y) = FLT3(D835Y) (Homo sapiens (Human), UniProt P36888, D835Y); conditions: 10000 nM, read-out: Percent Control
JNK2 = JNK2 (Homo sapiens (Human), UniProt P45984); conditions: JNK2, 10000 nM; read-out: Percent Control
JNK3 = JNK3 (Homo sapiens (Human), UniProt P53779); conditions: JNK3, 10000 nM; read-out: Percent Control
KIT(V559D) = KIT(V559D) (Homo sapiens (Human), UniProt P10721, V559D); conditions: 10000 nM, read-out: Percent Control
KIT(V559D, T670I) = KIT(V559D, T670I) (Homo sapiens (Human), UniProt P10721, T670I/V559D); conditions: 10000 nM, read-out: Percent Control
MEK5 = MEK5 (Homo sapiens (Human), UniProt Q13163); conditions: MEK5, 10000 nM; read-out: Percent Control
MET(M1250T) = MET(M1250T) (Homo sapiens (Human), UniProt P08581, M1250T); conditions: 10000 nM, read-out: Percent Control
MLK2 = MLK2 (Homo sapiens (Human), UniProt Q02779); conditions: MLK2, 10000 nM; read-out: Percent Control
MST2 = MST2 (Homo sapiens (Human), UniProt Q13188); conditions: MST2, 10000 nM; read-out: Percent Control
MYLK4 = MYLK4 (Homo sapiens (Human), UniProt Q86YV6); conditions: MYLK4, 10000 nM; read-out: Percent Control
NEK9 = NEK9 (Homo sapiens (Human), UniProt Q8TD19); conditions: NEK9, 10000 nM; read-out: Percent Control
PAK7 = PAK7 (Homo sapiens (Human), UniProt Q9P286); conditions: PAK7, 10000 nM; read-out: Percent Control
PIK3CA(M1043I) = PIK3CA(M1043I) (Homo sapiens (Human), UniProt P42336, M1043I); conditions: 10000 nM, read-out: Percent Control
PRKCH = PRKCH (Homo sapiens (Human), UniProt P24723); conditions: 10000 nM, read-out: Percent Control
RET(V804M) = RET(V804M) (Homo sapiens (Human), UniProt P07949, V804M); conditions: 10000 nM, read-out: Percent Control
RIOK3 = RIOK3 (Homo sapiens (Human), UniProt O14730); conditions: RIOK3, 10000 nM; read-out: Percent Control
SBK1 = SBK1 (Homo sapiens (Human), UniProt Q52WX2); conditions: SBK1, 10000 nM; read-out: Percent Control
TAOK2 = TAOK2 (Homo sapiens (Human), UniProt Q9UL54); conditions: TAOK2, 10000 nM; read-out: Percent Control
TESK1 = TESK1 (Homo sapiens (Human), UniProt Q15569); conditions: TESK1, 10000 nM; read-out: Percent Control
TSSK3 = TSSK3 (Homo sapiens (Human), UniProt Q96PN8); conditions: TSSK3, 10000 nM; read-out: Percent Control
[3] = molecular target: TYK2(JH1domain-catalytic) (Homo sapiens (Human), UniProt P29597); conditions: 10000 nM, read-out: Percent Control
TYK2(JH1domain-catalytic), sequence (P29597 897-1176): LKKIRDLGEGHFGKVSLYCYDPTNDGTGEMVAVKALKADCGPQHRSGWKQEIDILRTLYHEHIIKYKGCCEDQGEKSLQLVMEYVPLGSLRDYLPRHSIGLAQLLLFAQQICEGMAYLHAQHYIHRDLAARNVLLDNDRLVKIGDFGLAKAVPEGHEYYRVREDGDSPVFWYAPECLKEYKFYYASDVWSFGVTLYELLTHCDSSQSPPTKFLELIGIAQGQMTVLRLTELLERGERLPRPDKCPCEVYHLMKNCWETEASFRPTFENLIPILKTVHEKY

PAK7, sequence (Q9P286 whole entry): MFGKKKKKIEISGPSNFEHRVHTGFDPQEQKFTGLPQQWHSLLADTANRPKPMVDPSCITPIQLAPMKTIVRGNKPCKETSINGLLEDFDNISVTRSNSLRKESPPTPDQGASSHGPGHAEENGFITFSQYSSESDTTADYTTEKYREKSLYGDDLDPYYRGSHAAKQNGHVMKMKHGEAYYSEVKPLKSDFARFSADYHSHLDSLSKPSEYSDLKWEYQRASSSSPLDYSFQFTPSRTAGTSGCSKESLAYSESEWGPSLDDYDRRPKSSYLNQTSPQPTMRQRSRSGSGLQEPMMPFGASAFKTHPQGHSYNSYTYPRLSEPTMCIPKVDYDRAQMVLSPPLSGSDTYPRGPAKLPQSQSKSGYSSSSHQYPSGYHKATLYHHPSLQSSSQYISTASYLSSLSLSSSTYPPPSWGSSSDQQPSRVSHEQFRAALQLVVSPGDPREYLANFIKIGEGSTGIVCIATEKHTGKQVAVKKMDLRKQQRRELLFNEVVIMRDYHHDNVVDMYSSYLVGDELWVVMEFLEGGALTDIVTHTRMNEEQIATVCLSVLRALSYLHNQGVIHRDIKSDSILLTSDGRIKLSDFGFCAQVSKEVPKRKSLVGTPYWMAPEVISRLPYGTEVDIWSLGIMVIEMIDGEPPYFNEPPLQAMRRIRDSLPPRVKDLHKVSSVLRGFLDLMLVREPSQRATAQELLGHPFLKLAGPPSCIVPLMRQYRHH
EGFR(L747-S752del, P753S), sequence (P00533 other isoform, or with tags, fused parts or gaps P753S): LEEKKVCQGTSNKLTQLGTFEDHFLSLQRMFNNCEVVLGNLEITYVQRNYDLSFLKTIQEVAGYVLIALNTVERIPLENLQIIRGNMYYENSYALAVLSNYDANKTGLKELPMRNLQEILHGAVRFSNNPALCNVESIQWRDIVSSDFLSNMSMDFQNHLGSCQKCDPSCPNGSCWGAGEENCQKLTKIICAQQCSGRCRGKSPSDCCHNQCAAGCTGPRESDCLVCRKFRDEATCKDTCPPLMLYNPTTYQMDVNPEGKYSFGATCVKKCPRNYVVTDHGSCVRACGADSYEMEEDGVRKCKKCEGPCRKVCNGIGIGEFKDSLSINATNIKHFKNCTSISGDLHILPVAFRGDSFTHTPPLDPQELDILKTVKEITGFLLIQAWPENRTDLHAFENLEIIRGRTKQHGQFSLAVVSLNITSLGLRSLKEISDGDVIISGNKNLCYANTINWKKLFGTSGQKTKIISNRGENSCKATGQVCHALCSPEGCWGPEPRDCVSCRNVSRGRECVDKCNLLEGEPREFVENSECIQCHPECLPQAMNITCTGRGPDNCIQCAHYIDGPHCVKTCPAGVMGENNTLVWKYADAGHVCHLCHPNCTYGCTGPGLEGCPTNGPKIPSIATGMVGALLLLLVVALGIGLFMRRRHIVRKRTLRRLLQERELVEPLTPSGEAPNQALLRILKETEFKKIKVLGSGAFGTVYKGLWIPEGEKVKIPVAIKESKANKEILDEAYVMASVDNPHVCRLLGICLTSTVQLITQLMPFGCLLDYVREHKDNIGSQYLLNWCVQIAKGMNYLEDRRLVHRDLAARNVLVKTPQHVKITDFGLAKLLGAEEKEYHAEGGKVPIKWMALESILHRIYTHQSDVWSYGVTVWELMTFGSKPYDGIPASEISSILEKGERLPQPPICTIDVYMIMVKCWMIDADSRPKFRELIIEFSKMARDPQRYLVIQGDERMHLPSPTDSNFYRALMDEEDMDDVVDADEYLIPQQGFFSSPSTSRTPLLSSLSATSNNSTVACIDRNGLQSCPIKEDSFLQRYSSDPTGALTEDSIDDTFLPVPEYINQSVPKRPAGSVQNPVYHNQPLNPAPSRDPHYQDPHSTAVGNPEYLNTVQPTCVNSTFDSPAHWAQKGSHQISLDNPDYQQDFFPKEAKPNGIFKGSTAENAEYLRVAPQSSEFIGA
PIK3CA(M1043I), sequence (P42336 whole entry M1043I): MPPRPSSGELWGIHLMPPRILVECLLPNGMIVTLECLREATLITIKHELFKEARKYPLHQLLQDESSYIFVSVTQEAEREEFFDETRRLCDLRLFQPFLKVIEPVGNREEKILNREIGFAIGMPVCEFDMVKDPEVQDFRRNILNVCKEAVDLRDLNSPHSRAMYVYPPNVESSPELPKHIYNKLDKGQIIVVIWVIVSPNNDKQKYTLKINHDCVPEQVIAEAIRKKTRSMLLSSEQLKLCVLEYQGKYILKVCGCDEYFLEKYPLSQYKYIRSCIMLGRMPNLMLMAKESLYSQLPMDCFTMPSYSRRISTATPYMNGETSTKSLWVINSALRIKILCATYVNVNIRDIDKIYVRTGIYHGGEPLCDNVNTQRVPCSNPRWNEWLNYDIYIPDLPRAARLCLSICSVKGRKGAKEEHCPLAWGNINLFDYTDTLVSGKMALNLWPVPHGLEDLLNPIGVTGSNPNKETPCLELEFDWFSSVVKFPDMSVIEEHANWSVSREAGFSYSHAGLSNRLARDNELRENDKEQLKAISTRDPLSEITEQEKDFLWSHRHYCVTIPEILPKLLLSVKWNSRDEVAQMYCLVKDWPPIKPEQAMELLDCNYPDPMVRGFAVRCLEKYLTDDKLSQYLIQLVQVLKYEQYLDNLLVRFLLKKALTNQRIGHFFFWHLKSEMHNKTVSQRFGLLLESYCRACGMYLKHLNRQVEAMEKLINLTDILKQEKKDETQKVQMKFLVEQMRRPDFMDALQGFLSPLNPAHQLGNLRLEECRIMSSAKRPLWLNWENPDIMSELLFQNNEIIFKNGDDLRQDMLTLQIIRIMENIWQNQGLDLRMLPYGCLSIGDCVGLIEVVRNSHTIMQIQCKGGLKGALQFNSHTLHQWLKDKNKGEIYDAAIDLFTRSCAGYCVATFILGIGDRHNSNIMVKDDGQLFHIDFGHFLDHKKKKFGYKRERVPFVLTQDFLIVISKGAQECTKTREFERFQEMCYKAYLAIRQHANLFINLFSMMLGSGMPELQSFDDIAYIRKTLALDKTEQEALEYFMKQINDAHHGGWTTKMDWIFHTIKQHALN
MST2, sequence (Q13188 whole entry): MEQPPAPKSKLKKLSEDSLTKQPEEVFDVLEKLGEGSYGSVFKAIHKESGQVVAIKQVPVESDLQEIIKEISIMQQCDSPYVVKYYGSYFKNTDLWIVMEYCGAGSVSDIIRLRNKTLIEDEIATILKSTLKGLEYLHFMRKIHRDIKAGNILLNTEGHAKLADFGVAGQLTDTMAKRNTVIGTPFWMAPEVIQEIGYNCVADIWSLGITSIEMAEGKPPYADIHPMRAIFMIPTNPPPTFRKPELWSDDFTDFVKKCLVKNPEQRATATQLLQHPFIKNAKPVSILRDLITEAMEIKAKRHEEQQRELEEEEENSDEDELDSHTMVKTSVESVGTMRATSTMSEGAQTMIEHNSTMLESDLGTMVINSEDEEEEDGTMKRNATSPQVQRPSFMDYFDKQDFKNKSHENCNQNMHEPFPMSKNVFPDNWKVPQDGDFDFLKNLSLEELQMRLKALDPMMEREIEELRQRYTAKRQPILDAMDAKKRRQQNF
TSSK3, sequence (Q96PN8 whole entry): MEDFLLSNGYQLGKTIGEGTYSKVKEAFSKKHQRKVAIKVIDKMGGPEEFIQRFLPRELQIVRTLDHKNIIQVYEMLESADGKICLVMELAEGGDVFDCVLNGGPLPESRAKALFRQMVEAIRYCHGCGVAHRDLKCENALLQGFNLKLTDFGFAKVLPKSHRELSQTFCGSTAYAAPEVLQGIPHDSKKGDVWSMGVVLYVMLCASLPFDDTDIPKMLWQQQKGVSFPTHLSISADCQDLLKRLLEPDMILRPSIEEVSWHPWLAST
KIT(V559D, T670I), sequence (P10721 26-976 V559D/T670I): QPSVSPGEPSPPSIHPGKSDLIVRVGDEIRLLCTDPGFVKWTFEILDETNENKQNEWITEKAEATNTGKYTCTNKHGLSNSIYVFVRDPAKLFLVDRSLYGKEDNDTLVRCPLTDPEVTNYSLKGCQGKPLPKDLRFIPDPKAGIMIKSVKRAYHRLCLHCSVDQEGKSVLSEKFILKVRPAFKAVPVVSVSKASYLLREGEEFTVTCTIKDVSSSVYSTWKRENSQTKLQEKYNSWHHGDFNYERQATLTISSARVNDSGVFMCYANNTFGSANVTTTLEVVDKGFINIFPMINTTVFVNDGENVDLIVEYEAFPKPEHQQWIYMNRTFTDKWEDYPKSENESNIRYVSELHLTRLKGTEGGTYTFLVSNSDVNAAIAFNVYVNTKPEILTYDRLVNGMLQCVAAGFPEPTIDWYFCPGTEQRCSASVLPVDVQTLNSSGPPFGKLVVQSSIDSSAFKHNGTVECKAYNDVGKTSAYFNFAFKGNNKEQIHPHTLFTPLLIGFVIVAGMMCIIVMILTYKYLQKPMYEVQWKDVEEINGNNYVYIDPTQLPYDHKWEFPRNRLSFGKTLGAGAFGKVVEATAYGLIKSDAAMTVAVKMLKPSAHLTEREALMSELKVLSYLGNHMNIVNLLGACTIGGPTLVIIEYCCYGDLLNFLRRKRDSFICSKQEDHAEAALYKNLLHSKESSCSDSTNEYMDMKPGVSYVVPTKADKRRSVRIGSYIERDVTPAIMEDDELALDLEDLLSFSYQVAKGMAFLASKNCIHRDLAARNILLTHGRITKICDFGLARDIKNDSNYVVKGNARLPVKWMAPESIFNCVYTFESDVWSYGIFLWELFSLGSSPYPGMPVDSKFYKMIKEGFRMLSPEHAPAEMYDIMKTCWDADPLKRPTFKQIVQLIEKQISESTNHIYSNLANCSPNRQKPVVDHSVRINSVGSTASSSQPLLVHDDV
KIT(V559D), sequence (P10721 26-976 V559D): as the sequence (P10721 26-976 V559D/T670I) above, with I645T counted along it

SMILES | remaining binding at 10 µM [1] [%] | remaining binding at 10 µM (BLK) [%] | remaining binding at 10 µM (CDC2L2) [%] | remaining binding at 10 µM (CDK8) [%] | remaining binding at 10 µM (CSNK1A1) [%] | remaining binding at 10 µM (DAPK1) [%] | remaining binding at 10 µM (EGFR) [%] | remaining binding at 10 µM [2] [%] | remaining binding at 10 µM (EIF2AK1) [%] | remaining binding at 10 µM (EPHA1) [%] | remaining binding at 10 µM (FGFR4) [%] | remaining binding at 10 µM (FLT3(D835Y)) [%] | remaining binding at 10 µM (JNK2) [%] | remaining binding at 10 µM (JNK3) [%] | remaining binding at 10 µM (KIT(V559D)) [%] | remaining binding at 10 µM (KIT(V559D, T670I)) [%] | remaining binding at 10 µM (MEK5) [%] | remaining binding at 10 µM (MET(M1250T)) [%] | remaining binding at 10 µM (MLK2) [%] | remaining binding at 10 µM (MST2) [%] | further results
COc1cc(N2CCC(N3CCN(C)CC3)CC2)ccc1Nc1ncc2c(n1)N(C)c1sc(C)nc1C(=O)N2 [Compound 3, 6-((2-methoxy-4-(4-(4-methylpiperazin-1-yl)piperidin-1-yl)phenyl)amino)-2,4-dimethyl-4,9-dihydro-10H-pyrimido[5,4-b]thiazolo[5,4-e][1,4]diazepin-10-one] | 7.8 | 55 | 87 | 78 | 62 | 72 | 90 | 99 | 73 | 54 | 90 | 76 | 100 | 100 | 56 | 86 | 22 | 82 | 96 | 100 | remaining binding at 10 µM (MYLK4): 77%; remaining binding at 10 µM (NEK9): 84%; remaining binding at 10 µM (PAK7): 97%; remaining binding at 10 µM (PIK3CA(M1043I); PIK3CA(M1043I)): 87%; remaining binding at 10 µM (PRKCH): 89%; remaining binding at 10 µM (RET(V804M)): 100%; remaining binding at 10 µM (RIOK3): 79%; remaining binding at 10 µM (SBK1): 100%; remaining binding at 10 µM (TAOK2): 95%; remaining binding at 10 µM (TESK1): 81%; remaining binding at 10 µM (TSSK3): 98%; remaining binding at 10 µM [3]: 84%
COc1cc(N2CCC(N3CCN(C)CC3)CC2)ccc1Nc1ncc2c(n1)N(C)c1sc(C)nc1C(=O)N2C [Compound 5, 6-((2-methoxy-4-(4-(4-methylpiperazin-1-yl)piperidin-1-yl)phenyl)amino)-2,4,9-trimethyl-4,9-dihydro-10H-pyrimido[5,4-b]thiazolo[5,4-e][1,4]diazepin-10-one] | 93 | 95 | 95 | 100 | 97 | 84 | 100 | 91 | 100 | 100 | 88 | 91 | 98 | 97 | 100 | 95 | 100 | 100 | 76 | 100 | remaining binding at 10 µM (MYLK4): 100%; remaining binding at 10 µM (NEK9): 100%; remaining binding at 10 µM (PAK7): 88%; remaining binding at 10 µM (PIK3CA(M1043I); PIK3CA(M1043l)): 100%; remaining binding at 10 µM (PRKCH): 94%; remaining binding at 10 µM (RET(V804M)): 73%; remaining binding at 10 µM (RIOK3): 99%; remaining binding at 10 µM (SBK1): 98%; remaining binding at 10 µM (TAOK2): 93%; remaining binding at 10 µM (TESK1): 100%; remaining binding at 10 µM (TSSK3): 98%; remaining binding at 10 µM [3]: 97%
